According to patent US20220000111A1, “METHODS OF INCREASING ALMOND YIELD” (Valent U.S.A. LLC, priority 2020, published 2022):

Experiments:
Assay type in all cases: in vivo
almond trees [1] = assay: Example 4: foliar AVG-HCl application to nonpareil almonds at Newman and Sutter, 2020; conditions: for percentage of shells harvested that contained two nut kernels / yield at harvest of almond nutmeat: nonpareil, 124 g/Ha
Procedure: 2 sets of AVG applications were performed on nonpareil almonds at Newman, Calif. and Sutter, Calif. in 2020. Each set of applications included a set of untreated control (“UTC”) trees. AVG-HCl was applied to almond trees either at 50% bloom (i.e. bloom), shuck split, or 7 days following shuck split.

almond trees [2] = assay: Example 2: foliar AVG-HCl application at full bloom or after, nonpareil and carmel almonds; conditions: for % Kernel Doubling / Nutmeat Yield / Nuts/Tree: 124 g/Ha
Procedure: 2 sets of AVG applications were performed on 2 varieties of almonds, nonpareil and […]. For the two sets of applications performed AVG-HCl was applied to almond trees either at full bloom or after full bloom, specifically at 22, 26, 29 or 33 days after full bloom (“DAFB”).

almond trees [3] = assay: Example 1: foliar AVG-HCl application to almond trees, 2018-2019, nutmeat yield and kernel doubling at harvest; conditions: for percentage of shells harvested that contained two nut kernels, Average / yield at harvest of almond nutmeat, Average: average of trials
Procedure: […] of AVG applications were performed over a 2-year period. Each set of applications included a set of untreated control (“UTC”) trees. For the two sets of applications performed during the 2018 calendar year AVG-HCl was applied to almond trees either between 10% and full bloom (i.e. bloom) or between 6-7 weeks following full bloom (i.e. post-bloom). For the three sets of applications performed during the 2019 calendar year an additional application was performed as follows: 3-4 weeks post-bloom in combination with 6-7 weeks post-bloom.

almond trees [4] = assay: Example 3: foliar AVG-HCl application at full bloom or after, nonpareil and carmel almonds; conditions: for % Kernel Doubling / Nutmeat Yield / Nuts/Tree: 124 g/Ha
Procedure: 2 sets of AVG applications were performed on 2 varieties of almonds, nonpareil and […]. For the two sets of applications performed AVG-HCl was applied to almond trees either at full bloom or after full bloom, specifically 15, 22, 26, 32, 36 or 38 DAFB.

[5] = Newman, 7-days post shuck split
[6] = Sutter, 7-days post shuck split
[7] = 3-4 weeks Post-bloom & 6-7 weeks Post-bloom, 2 apps, 62 g/Ha each
[8] = 3-4 weeks Post-bloom & 6-7 weeks Post-bloom, 2 apps, 62 g/Ha each, trial 2019-1
[9] = 3-4 weeks Post-bloom & 6-7 weeks Post-bloom, 2 apps, 62 g/Ha each, trial 2019-2
[10] = 3-4 weeks Post-bloom & 6-7 weeks Post-bloom, 2 apps, 62 g/Ha each, trial 2019-3
[11] = 6-7 weeks Post-bloom, 1 app, 124 g/Ha
[12] = 6-7 weeks Post-bloom, 1 app, 124 g/Ha, trial 2018-1 (second column)
[13] = 6-7 weeks Post-bloom, 1 app, 124 g/Ha, trial 2019-1
[14] = 6-7 weeks Post-bloom, 1 app, 124 g/Ha, trial 2019-2
[15] = 6-7 weeks Post-bloom, 1 app, 124 g/Ha, trial 2019-3
[16] = Bloom, 1 app, 124 g/Ha, trial 2018-1 (second column)
[17] = Bloom, 1 app, 124 g/Ha, trial 2019-1
[18] = Bloom, 1 app, 124 g/Ha, trial 2019-2
[19] = Bloom, 1 app, 124 g/Ha, trial 2019-3

Compound: Cl.NCCO/C=C/[C@H](N)C(=O)O [AVG-HCl]
- percentage of shells harvested that contained two nut kernels (almond trees [1]; [5]): 3.0%
- yield at harvest of almond nutmeat (almond trees [1]; [5]): 3726 a kilograms per hectare
- percentage of shells harvested that contained two nut kernels (almond trees [1]; Newman, Bloom (50% bloom)): 2.7%
- yield at harvest of almond nutmeat (almond trees [1]; Newman, Bloom (50% bloom)): 3188 c kilograms per hectare
- percentage of shells harvested that contained two nut kernels (almond trees [1]; Newman, Shuck split): 2.2%
- yield at harvest of almond nutmeat (almond trees [1]; Newman, Shuck split): 3369 b kilograms per hectare
- percentage of shells harvested that contained two nut kernels (almond trees [1]; [6]): 0.5%
- yield at harvest of almond nutmeat (almond trees [1]; [6]): 3558 ab kilograms per hectare
- percentage of shells harvested that contained two nut kernels (almond trees [1]; Sutter, Bloom (50% bloom)): 1.2%
- yield at harvest of almond nutmeat (almond trees [1]; Sutter, Bloom (50% bloom)): 3658 a kilograms per hectare
- percentage of shells harvested that contained two nut kernels (almond trees [1]; Sutter, Shuck split): 0.7%
- yield at harvest of almond nutmeat (almond trees [1]; Sutter, Shuck split): 3758 a kilograms per hectare
- % Kernel Doubling (almond trees [2]; carmel, 22 DAFB): 5.6 bc %
- Nutmeat Yield (almond trees [2]; carmel, 22 DAFB): 7.94 kg/tree
- Nuts/Tree (almond trees [2]; carmel, 22 DAFB): 8499 b nuts per tree
- % Kernel Doubling (almond trees [2]; carmel, 26 DAFB): 3.7 c %
- Nutmeat Yield (almond trees [2]; carmel, 26 DAFB): 8.50 kg/tree
- Nuts/Tree (almond trees [2]; carmel, 26 DAFB): 9676 a nuts per tree
- % Kernel Doubling (almond trees [2]; carmel, Full Bloom): 7.6 a %
- Nutmeat Yield (almond trees [2]; carmel, Full Bloom): 7.04 kg/tree
- Nuts/Tree (almond trees [2]; carmel, Full Bloom): 7039 b nuts per tree
- % Kernel Doubling (almond trees [2]; nonpareil, 29 DAFB): 1.4 b %
- Nutmeat Yield (almond trees [2]; nonpareil, 29 DAFB): 8.64 a kg/tree
- Nuts/Tree (almond trees [2]; nonpareil, 29 DAFB): 8435 a nuts per tree
- % Kernel Doubling (almond trees [2]; nonpareil, 33 DAFB): 0.4 b %
- Nutmeat Yield (almond trees [2]; nonpareil, 33 DAFB): 7.89 ab kg/tree
- Nuts/Tree (almond trees [2]; nonpareil, 33 DAFB): 8350 a nuts per tree
- % Kernel Doubling (almond trees [2]; nonpareil, Full Bloom): 3.8 a %
- Nutmeat Yield (almond trees [2]; nonpareil, Full Bloom): 8.03 ab kg/tree
- Nuts/Tree (almond trees [2]; nonpareil, Full Bloom): 8153 ab nuts per tree
- percentage of shells harvested that contained two nut kernels, Average (almond trees [3]; [7]): 1.55 b %
- yield at harvest of almond nutmeat, Average (almond trees [3]; [7]): 1229 a kilograms per hectare
- percentage of shells harvested that contained two nut kernels (almond trees [3]; [8]): 1.3 b %
- yield at harvest of almond nutmeat (almond trees [3]; [8]): 1164 kilograms per hectare
- percentage of shells harvested that contained two nut kernels (almond trees [3]; [9]): 1.5 abc %
- yield at harvest of almond nutmeat (almond trees [3]; [9]): 1698 a kilograms per hectare
- percentage of shells harvested that contained two nut kernels (almond trees [3]; [10]): 1.9 b %
- yield at harvest of almond nutmeat (almond trees [3]; [10]): 825 b kilograms per hectare
- percentage of shells harvested that contained two nut kernels, Average (almond trees [3]; [11]): 2.11 b %
- yield at harvest of almond nutmeat, Average (almond trees [3]; [11]): 1033 ab kilograms per hectare
- yield at harvest of almond nutmeat (almond trees [3]; 6-7 weeks Post-bloom, 1 app, 124 g/Ha, trial 2018-1 (first column)): 721 kilograms per hectare
- percentage of shells harvested that contained two nut kernels (almond trees [3]; [12]): 6.6 b %
- yield at harvest of almond nutmeat (almond trees [3]; [12]): 1345 a kilograms per hectare
- percentage of shells harvested that contained two nut kernels (almond trees [3]; [13]): 2.5 ab %
- yield at harvest of almond nutmeat (almond trees [3]; [13]): 1168 kilograms per hectare
- percentage of shells harvested that contained two nut kernels (almond trees [3]; [14]): 1.08 bc %
- yield at harvest of almond nutmeat (almond trees [3]; [14]): 1220 b kilograms per hectare
- percentage of shells harvested that contained two nut kernels (almond trees [3]; [15]): 0.7 bc %
- yield at harvest of almond nutmeat (almond trees [3]; [15]): 713 bc kilograms per hectare
- percentage of shells harvested that contained two nut kernels, Average (almond trees [3]; Bloom, 1 app, 124 g/Ha): 8.62 a %
- yield at harvest of almond nutmeat, Average (almond trees [3]; Bloom, 1 app, 124 g/Ha): 1068 ab kilograms per hectare
- yield at harvest of almond nutmeat (almond trees [3]; Bloom, 1 app, 124 g/Ha, trial 2018-1 (first column)): 712 kilograms per hectare
- percentage of shells harvested that contained two nut kernels (almond trees [3]; [16]): 27.7 a %
- yield at harvest of almond nutmeat (almond trees [3]; [16]): 1148 b kilograms per hectare
- percentage of shells harvested that contained two nut kernels (almond trees [3]; [17]): 3.5 a %
- yield at harvest of almond nutmeat (almond trees [3]; [17]): 1204 kilograms per hectare
- percentage of shells harvested that contained two nut kernels (almond trees [3]; [18]): 2.92 ab %
- yield at harvest of almond nutmeat (almond trees [3]; [18]): 1198 b kilograms per hectare
- percentage of shells harvested that contained two nut kernels (almond trees [3]; [19]): 15.9 a %
- yield at harvest of almond nutmeat (almond trees [3]; [19]): 1031 a kilograms per hectare
- % Kernel Doubling (almond trees [4]; carmel, 15 DAFB): 0.4 b %
- Nutmeat Yield (almond trees [4]; carmel, 15 DAFB): 6.00 kg/tree
- Nuts/Tree (almond trees [4]; carmel, 15 DAFB): 7271 nuts per tree
- % Kernel Doubling (almond trees [4]; carmel, 22 DAFB): 1.4 b %
- Nutmeat Yield (almond trees [4]; carmel, 22 DAFB): 5.40 kg/tree
- Nuts/Tree (almond trees [4]; carmel, 22 DAFB): 7427 nuts per tree
- % Kernel Doubling (almond trees [4]; carmel, 32 DAFB): 0.6 b %
- Nutmeat Yield (almond trees [4]; carmel, 32 DAFB): 5.30 kg/tree
- Nuts/Tree (almond trees [4]; carmel, 32 DAFB): 6972 nuts per tree
- % Kernel Doubling (almond trees [4]; carmel, 38 DAFB): 1 b %
- Nutmeat Yield (almond trees [4]; carmel, 38 DAFB): 7.00 kg/tree
- Nuts/Tree (almond trees [4]; carmel, 38 DAFB): 8875 nuts per tree
- % Kernel Doubling (almond trees [4]; carmel, Full Bloom): 8.4 a %
- Nutmeat Yield (almond trees [4]; carmel, Full Bloom): 6.10 kg/tree
- Nuts/Tree (almond trees [4]; carmel, Full Bloom): 7097 nuts per tree
- % Kernel Doubling (almond trees [4]; nonpareil, 26 DAFB): 0.8 b %
- Nutmeat Yield (almond trees [4]; nonpareil, 26 DAFB): 5.9 kg/tree
- Nuts/Tree (almond trees [4]; nonpareil, 26 DAFB): 7636.8 nuts per tree
- % Kernel Doubling (almond trees [4]; nonpareil, 36 DAFB): 0.6 c %
- Nutmeat Yield (almond trees [4]; nonpareil, 36 DAFB): 6 kg/tree
- Nuts/Tree (almond trees [4]; nonpareil, 36 DAFB): 7789.8 nuts per tree
- % Kernel Doubling (almond trees [4]; nonpareil, Full Bloom): 2.0 a %
- Nutmeat Yield (almond trees [4]; nonpareil, Full Bloom): 4.3 kg/tree
- Nuts/Tree (almond trees [4]; nonpareil, Full Bloom): 5251.6 nuts per tree

Compound: NCCO/C=C/[C@H](N)C(=O)O (stereo in doubt) [AVG, [S]-trans-2-amino-4-(2-aminoethoxy)-3-butenoic acid]
- nutmeat yield, in words (almond trees [1]; application during bloom, versus untreated control (Table 7)): increases nutmeat yield over untreated control
- kernel doubling, in words (almond trees [1]; application during bloom, Sutter, Calif. trial (Table 8)): statistically significant increase in kernel doubling
- kernel doubling, in words (almond trees [1]; application post-bloom (Table 8)): did not result in a statistically significant increase in kernel doubling
- nutmeat yield, in words (almond trees [1]; application post-bloom, versus bloom treatment (Table 7)): greater increase in nutmeat yield than that obtained when treating during bloom
- nutmeat yield, in words (almond trees [2]; application during bloom or following full bloom, nonpareil and carmel (Tables 3 and 4)): increases nutmeat yield
- kernel doubling, in words (almond trees [2]; application during bloom, nonpareil and carmel (Tables 3 and 4)): statistically significant increase in kernel doubling
- kernel doubling, in words (almond trees [2]; application post-bloom, nonpareil and carmel (Tables 3 and 4)): did not result in a statistically significant increase in kernel doubling
- kernel doubling, in words (almond trees [3]; application during bloom (Table 2)): statistically significant increase in kernel doubling
- nutmeat yield, in words (almond trees [3]; application during bloom, versus untreated control (Table 1)): increases nutmeat yield over untreated control
- kernel doubling, in words (almond trees [3]; application post-bloom (Table 2)): did not result in a statistically significant increase in kernel doubling
- nutmeat yield, in words (almond trees [3]; application post-bloom, versus bloom treatment (Table 1)): greater increase in nutmeat yield than that obtained when treating during bloom
- nutmeat yield, in words (almond trees [4]; application during bloom or following full bloom, nonpareil and carmel (Tables 5 and 6)): increases nutmeat yield
- kernel doubling, in words (almond trees [4]; application during bloom, nonpareil and carmel (Tables 5 and 6)): statistically significant increase in kernel doubling
- kernel doubling, in words (almond trees [4]; application post-bloom, nonpareil and carmel (Tables 5 and 6)): did not result in a statistically significant increase in kernel doubling
